The source of these data is patent US20240279214A1, “ALPHA4 BETA7 INEGRIN ANTAGONISTS AND USES THEREOF” (XinThera, Inc., priority 2022, published 2024).

Broadly, the EC50 is the midpoint of the concentration-response curve.

The target in this experiment is T1, a4b7 integrin interaction with MadCAM-1 (Homo sapiens, UniProt P13612+P26010).
T1 construct: capture of a4b7 integrin expressing cells, RPMI8866; endogenous in cells; host or cells: RPMI8866
T1 sequence (P13612 34-1032): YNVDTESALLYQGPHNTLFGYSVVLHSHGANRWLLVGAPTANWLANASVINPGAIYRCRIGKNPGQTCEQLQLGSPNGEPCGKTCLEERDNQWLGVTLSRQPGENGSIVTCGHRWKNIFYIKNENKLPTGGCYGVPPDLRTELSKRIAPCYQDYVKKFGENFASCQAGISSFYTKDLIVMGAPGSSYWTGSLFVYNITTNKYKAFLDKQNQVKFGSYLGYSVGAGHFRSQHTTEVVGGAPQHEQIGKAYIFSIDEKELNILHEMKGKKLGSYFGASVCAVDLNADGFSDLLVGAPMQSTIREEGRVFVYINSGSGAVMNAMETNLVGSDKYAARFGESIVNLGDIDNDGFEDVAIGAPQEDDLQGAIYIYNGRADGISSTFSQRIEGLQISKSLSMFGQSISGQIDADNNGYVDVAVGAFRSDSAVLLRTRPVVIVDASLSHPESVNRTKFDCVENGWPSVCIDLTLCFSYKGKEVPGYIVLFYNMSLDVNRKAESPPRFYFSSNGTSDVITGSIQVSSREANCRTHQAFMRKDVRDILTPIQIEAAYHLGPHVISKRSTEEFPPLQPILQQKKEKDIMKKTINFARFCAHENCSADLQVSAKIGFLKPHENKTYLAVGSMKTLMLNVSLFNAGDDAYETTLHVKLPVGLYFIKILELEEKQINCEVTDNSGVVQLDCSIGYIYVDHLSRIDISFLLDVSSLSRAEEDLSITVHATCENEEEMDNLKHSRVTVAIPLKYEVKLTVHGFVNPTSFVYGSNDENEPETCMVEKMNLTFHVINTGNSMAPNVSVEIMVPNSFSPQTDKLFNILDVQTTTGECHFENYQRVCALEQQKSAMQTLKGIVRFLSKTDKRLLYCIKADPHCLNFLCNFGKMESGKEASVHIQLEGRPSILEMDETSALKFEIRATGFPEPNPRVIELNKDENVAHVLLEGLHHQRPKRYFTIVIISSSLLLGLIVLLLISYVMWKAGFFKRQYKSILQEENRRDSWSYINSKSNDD
T1 sequence (P26010 20-798): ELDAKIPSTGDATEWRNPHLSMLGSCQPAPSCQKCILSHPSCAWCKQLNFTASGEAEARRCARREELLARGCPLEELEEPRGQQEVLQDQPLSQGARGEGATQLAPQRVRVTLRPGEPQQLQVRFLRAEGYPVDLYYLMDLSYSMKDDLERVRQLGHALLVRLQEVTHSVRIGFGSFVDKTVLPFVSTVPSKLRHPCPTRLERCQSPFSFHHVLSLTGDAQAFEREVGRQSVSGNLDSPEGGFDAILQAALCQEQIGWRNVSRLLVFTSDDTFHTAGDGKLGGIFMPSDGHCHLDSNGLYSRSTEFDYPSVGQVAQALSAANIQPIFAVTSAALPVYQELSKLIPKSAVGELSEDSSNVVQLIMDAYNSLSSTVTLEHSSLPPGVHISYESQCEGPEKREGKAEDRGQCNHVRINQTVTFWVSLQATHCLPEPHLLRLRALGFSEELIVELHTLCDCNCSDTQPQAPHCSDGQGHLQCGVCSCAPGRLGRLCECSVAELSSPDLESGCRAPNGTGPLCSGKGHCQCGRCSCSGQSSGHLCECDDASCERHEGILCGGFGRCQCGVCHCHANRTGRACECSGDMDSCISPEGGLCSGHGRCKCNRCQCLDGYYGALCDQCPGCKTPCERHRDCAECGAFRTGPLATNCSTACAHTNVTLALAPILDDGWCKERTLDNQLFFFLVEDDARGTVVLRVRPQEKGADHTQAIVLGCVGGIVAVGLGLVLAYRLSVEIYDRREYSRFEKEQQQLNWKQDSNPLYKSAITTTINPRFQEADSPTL
Put plainly: a4b7 Cell Capture Assay (RPMI8866 cells on MAdCAM-1 Fc coated plates). The format is cell-based. As to conditions: 50% human serum, 1 mM MgCl2, 1 hour incubation, CellTiter-Glo luminescence, read-out: a4B7 cell capture assay RMPI8866-MadCAM EC50. The protocol:
The potency of inhibitors in preventing a4b7 integrin interaction with MadCAM-1 was measured by monitoring the capture of a4b7 integrin expressing cells, RPMI8866, on recombinant human MAdCAM-1 Fc chimera protein-coated plates. The protein was a fusion between human MAdCAM-1 (Met1-Gln333, Accession #AAY82472) and human IgG1 (Pro100-Lys330)] (R&D Systems, Catalog #6056-MC). 96-well plates (Thermofisher, Catalog #136102) were coated with the recombinant protein by dispensing 100 μL (1.0 μg/mL) per well. After a quick spin to settle down the coating solution using a plate centrifuge, plates were incubated overnight at 4° C. in a moisture chamber. On Day 2, the plates were washed with PBS using a Bluecatbio Blue®Washer (GentleSpin wash, 3 cycles, pressure=1, volume 150 uL). Blocking solution (1.0% BSA in PBS, Sigma, Catalog #A7979) was then added at 200 uL/well, and the plates were quickly spun to settle down blocking buffer and incubated in cell culture incubator at 37° C. and 5% CO2 for 1 hour. The plates were then washed with 0.1% BSA in PBS using a Bluecatbio Blue®Washer (GentleSpin wash, 3 cycles, pressure=1, volume 150 uL). RPMI8866 cells suspended in assay medium (1 mM MgCl2 25 mM HEPES and 50% human serum, Sigma, Catalog #H4522) at a density of 1.0×10^6 cells/mL were added at 100 uL/well. Each compound evaluated was prepared as a DMSO stock solution. Test compounds were evaluated with a 9-point serial dilution curve (1000, 333.3, 111.1, 55.6, 27.8, 13.9, 6.9, 2.3, and 0.77 nM)) and were added to the plates using a Tecan D.30e Digita dispenser, the dispensed stock is 100 nL and the final DMSO concentration is 0.1%. Potent compounds were re-evaluated at a new 9-point serial dilution curve (100, 33.3, 11.1, 5.6, 2.8, 1.4, 0.69, 0.23, and 0.08 nM). Each titration curves were performed in triplicate on the same plate, and most of compounds were retested in different dates multiple times. The plates were shaken at 300 rpm on orbital plate shaker for 3 minutes to mix the cells and compounds, quickly spun to settle the cells and solution, and incubated in cell culture incubator at 37° C. and 5% CO2. After 1 hour incubation, the unbound cells were washed away with RPMI1640 medium supplemented with 1 mM MgCl2 and 1% BSA) (wash buffer) using a Bluecatbio Blue®Washer (MagbeadsSpin wash, 1 cycle, pressure 1, volume=150 uL). After wash buffer removal, A mixture of wash buffer/CellTiter-Glo® Reagent (Pormega, catalog #G7573) at 1:1 (V/V) was added at volume of 100 uL to each well. The plates were placed in a chamber at 25° C. and incubated for 30 minutes. Luminescence was recorded using a Envision plate reader 2105 according to CellTiter-Glo protocol.
The mean luminescence signals from negative control wells without MadCAM-1 coating and compound treatment (cells only) was defined as 100% binding inhibition, and the mean luminescence signals from positive control wells with MadCAM-1 coating but without compound treatment (MadCAM-1 and cells only) was defined as 0% binding inhibition. The luminescence signals from other compound treated wells were normalized in percentage scale accordingly. The normalized mean % inhibition data were plotted against logarithmic compound concentration in nanomolar and were fitted with 4-parameter logistic model to obtain IC50 for each compound.
As to `Cc1cc(C)c2c(c1)Oc1ccc(F)c(c1)[C@H](n1cc(CCN3CC(F)C3)c(C(F)(F)F)cc1=O)C(=O)N[C@@H](CC(=O)O)c1cc-2cc(C)c1F` (relative stereo) [Example 27, [(14R*,17S)-12,19-difluoro-14-{5-[2-(3-fluoroazetidin-1-yl)ethyl]-2-oxo-4-(trifluoromethyl)pyridin-1-yl}-3,5,20-trimethyl-15-oxo-8-oxa-16-azatetracyclo[16.3.1.1^{9,13}.0^{2,7}]tricosa-1(22),2(7),3,5,9,11,13(23),18,20-nonaen-17-yl]acetic acid], the EC50 was 3.7 nM.

In the case of `O=C(O)C[C@@H]1NC(=O)[C@@H](n2cc(CCN3CC(F)C3)c(C(F)(F)F)cc2=O)c2cccc(c2)Oc2cccc(Cl)c2-c2cc1c(F)c(C(F)(F)F)c2` (relative stereo) [Example 17, [(14R*,17S)-3-chloro-19-fluoro-14-{5-[2-(3-fluoroazetidin-1-yl)ethyl]-2-oxo-4-(trifluoromethyl)pyridin-1-yl}-15-oxo-20-(trifluoromethyl)-8-oxa-16-azatetracyclo[16.3.1.1^{9,13}.0^{2,7}]tricosa-1(22),2(7),3,5,9,11,13(23),18,20-nonaen-17-yl]acetic acid], the EC50 amounted to 140 nM.

In the case of `Cc1cc2cc(c1F)[C@H](CC(=O)O)NC(=O)[C@@H](n1cc(CCN3CC(F)C3)c(C(F)(F)F)cc1=O)c1cc(cc(Cl)c1F)Oc1cccc(C)c1-2` [Example 38, [(14S,17S)-11-chloro-12,19-difluoro-14-{5-[2-(3-fluoroazetidin-1-yl)ethyl]-2-oxo-4-(trifluoromethyl)pyridin-1-yl}-3,20-dimethyl-15-oxo-8-oxa-16-azatetracyclo[16.3.1.1^{9,13}.0^{2,7}]tricosa-1(22),2(7),3,5,9,11,13(23),18,20-nonaen-17-yl]acetic acid], the EC50 was found to be 1.3 nM.

On to `Cc1cc2cc(c1F)[C@H](CC(=O)O)NC(=O)[C@H](n1cc(CCN3CC(F)C3)c(C(F)(F)F)cc1=O)c1cccc(c1)Cc1cccc(C)c1-2` (relative stereo) [Example 2, [(14R*,17S)-19-fluoro-14-{5-[2-(3-fluoroazetidin-1-yl)ethyl]-2-oxo-4-(trifluoromethyl)pyridin-1-yl}-3,20-dimethyl-15-oxo-16-azatetracyclo[16.3.1.1^{9,13}.0^{2,7}]tricosa-1(22),2(7),3,5,9,11,13(23),18,20-nonaen-17-yl]acetic acid], for which the concentration for a half-maximal effect (EC50) was determined as 76 nM.

As for `Cc1cc2cc(c1F)[C@H](CC(=O)O)NC(=O)[C@@H](n1cc(CCN3CC(F)C3)c(C(F)(F)F)cc1=O)c1cc(ccc1Cl)COc1cccc(C)c1-2` (single isomer, unassigned) [Example 58], the EC50 came out at 7 nM.

Regarding `Cc1ccc2c(c1C)-c1cc(C)c(F)c(c1)[C@H](CC(=O)O)NC(=O)[C@@H](n1cc(CCN3CC(F)C3)c(C(F)(F)F)cc1=O)c1cc(ccc1F)CO2` (relative stereo) [Example 51, [(15R*,18S)-13,20-difluoro-15-{5-[2-(3-fluoroazetidin-1-yl)ethyl]-2-oxo-4-(trifluoromethyl)pyridin-1-yl}-3,4,21-trimethyl-16-oxo-8-oxa-17-azatetracyclo[17.3.1.1^{10,14}.0^{2,7}]tetracosa-1(23),2(7),3,5,10,12,14(24),19,21-nonaen-18-yl]acetic acid], the EC50 came to 990 nM.

As to `Cc1cc2cc(c1F)[C@H](CC(=O)O)NC(=O)[C@@H](n1cc(CCN3CC(F)C3)c(C(F)(F)F)cc1=O)c1cc(ccc1F)Oc1cccc(Cl)c1-2` (relative stereo) [Example 19, [(14R*,17S)-3-chloro-12,19-difluoro-14-{5-[2-(3-fluoroazetidin-1-yl)ethyl]-2-oxo-4-(trifluoromethyl)pyridin-1-yl}-20-methyl-15-oxo-8-oxa-16-azatetracyclo[16.3.1.1^{9,13}.0^{2,7}]tricosa-1(22),2(7),3,5,9,11,13(23),18,20-nonaen-17-yl]acetic acid], the EC50 is 0.84 nM.

In the case of `Cc1cc2cc(c1F)[C@H](CC(=O)O)NC(=O)[C@@H](n1cc(CCN3CC(F)C3)c(C(F)(F)F)cc1=O)c1cc(ccc1F)Oc1cc(C#N)cc(C)c1-2` (single isomer, unassigned) [Example 46], the EC50 worked out at 1.6 nM.

As to `Cc1cccc2c1-c1cc(c(F)c(C(F)(F)F)c1)[C@H](CC(=O)O)NC(=O)[C@@H](n1cc(CCN3CC(F)C3)c(C(F)(F)F)cc1=O)c1cccc(c1)O2` (relative stereo) [Example 6, rel-2-((5S,8S)-14-fluoro-5-(5-(2-(3-fluoroazetidin-1-yl)ethyl)-2-oxo-4-(trifluoromethyl)pyridin-1(2H)-yl)-26-methyl-6-oxo-15-(trifluoromethyl)-3-oxa-7-aza-1,4(1,3),2(1,2)-tribenzenacyclooctaphane-8-yl)acetic acid], the EC50 came to 230 nM.

`Cc1cc2cc(c1F)[C@H](CC(=O)O)NC(=O)[C@@H](n1c(=O)c3ccncc3n(C)c1=O)c1cc(ccc1F)Oc1cccc(C)c1-2` (single isomer, unassigned) [Example 69]: the EC50 was 0.38 nM.
